Results on 4 compounds are retold here after patent US6660496B1 (priority 1993, dated 2003).

Entries after “also recorded” stand apart in the source; their conditions may differ.

Data set [1] concerns kappa3 opioid receptor. Kind of data set: Effect of antisense treatment on kappa3 analgesic activity (tailflick assay). It counts as in vivo. The note with it: mice, 5 μg oligodeoxynucleotide intracerebroventricular on days 1, 3 and 5, quantal tailflick 15 min after drug; for Effect on analgesic response to NalBzoH: NalBzoH 15 μg on day 6; for Effect on analgesic response to morphine: morphine 1 μg on day 6.

For data set [2], the system named is kappa3 receptors. The note with it: cited from earlier work.

As to “antisense: anti-sense to the kappa3 clone (5′-GGGCTGTGCAGAAGCGCAGA-3′)(SEQ ID NO:3) (DNA, backbone and methylation of C not given here)”, in data set [1], the “Effect on analgesic response to NalBzoH” value is “markedly lowered; also recorded: markedly reduced” and the “Effect on analgesic response to morphine” value is on record as “without interfering”. Moreover, in data set [1] (listed as anti-sense), the “Effect on analgesic response to morphine” value is “unaffected”.
“mismatched antisense: mismatched antisense in which two base pairs had been switched (5′-GGGTCGTGCAGAGACGCAGA-3′) (SEQ ID NO:5) (DNA, backbone and methylation of C not given here)”: the “Effect on analgesic response to NalBzoH” value in data set [1] is listed as “unaffected”; in data set [1] (listed as mismatched antisense probe), “lack of activity”.
On to `Oc1ccc2c3c1O[C@H]1c4[nH]c5c(c4C[C@@]4(O)[C@@H](C2)N(CC2CC2)CC[C@]314)C[C@@]1(O)[C@H]2Cc3ccc(O)c4c3[C@@]1(CCN2CC1CC1)[C@H]5O4` [nor-binaltorphimine], for which, in data set [2], the “Binding to kappa3 receptors” value is listed as “do not bind U50,488H or nor-binaltorphimine very well”.
As for “sense strand: complementary sense strand to the antisense oligodeoxynucleotide (5′-CCCGACACGTCTTCGC-GTCT-3′) (SEQ ID NO:4) (sense CCCGACACGTCTTCGCGTCT; DNA, backbone and methylation of C not given here)”, the “Effect on analgesic response to NalBzoH” value in data set [1] is “lack of activity”; in data set [1] (listed as sense), “unaffected”.
